Results as given in article PMC10427684, “Diversity-oriented synthesis encoded by deoxyoligonucleotides” (Nature Communications, 2023).

What was measured:
[1] = target: T1, Carbonic anhydrase II (CAII), BioVision kit #K473-100 (Homo sapiens, UniProt P00918); assay: biochemical; set-up: CAII esterase activity inhibition kit, absorbance at 405 nm, dose-response
T1 construct: gene CA2; kit enzyme
Experimental: Carbonic anhydrase II (CAII) inhibition assays were performed using a commercially available kit (BioVision, #K473-100), following the manufacturer’s protocol. For each assayed DOSEDO compound, 11 concentrations (half-log dilutions from 10 µM to 100 pM) were tested, with three technical replicates performed on each of two separate 384-well µClear® medium-binding, flat-bottom polystyrene microplates (Greiner Bio-One, #82051-294) (n = 6 for each compound concentration); for 53 only, six technical replicates (n = 6) were performed on the same plate for each compound concentration. Each reaction well contained 3 µL of compound (prepared in 10% DMSO, 90% kit buffer), 25.5 µL of enzyme/buffer mix (1.4 µL enzyme, 24.1 µL kit buffer), and 1.5 µL of substrate, for a total volume of 30 µL. Absorbance at 405 nm was read on a Molecular Devices SpectraMax i3x. In addition to the experimental conditions, a DMSO control and a no-enzyme control were each performed with three technical replicates on each plate, except for the experiment with 53, where six technical replicates for each control were performed on the same plate. The average change in absorbance for the no-enzyme control was subtracted from the change in absorbance over the same time interval for each experimental condition and the DMSO control on the same plate. For each concentration of each compound, relative activity was calculated separately for each replicate based on the average change in absorbance for the DMSO control on the same plate. Dose-response curves were fitted and IC50 values and 95% confidence intervals were calculated using GraphPad Prism v9.2.0. Curves were fitted using GraphPad Prism’s log(inhibitor) vs. response-variable slope nonlinear regression equation, with the top asymptote constrained to 100. Outliers were detected and removed via GraphPad Prism’s ROUT method, with a Q-value of 1%. Error bars (only shown if greater than the height of the symbol) represent 95% confidence intervals (Supplementary Fig. 22).

[2] = target: T2, glutathione S-transferase (GST), His-tagged (Schistosoma japonicum, UniProt P08515); assay: DSF with isolated His-tagged GST (dose-dependent thermal shift), confirmed by SPR; type: binding; settings: read-out: delta_Tm
T2 construct: His-tagged GST (Abcam ab89494); also the GST portion of N-His-GST-tagged USP7 (Lys208-Glu560)
T2 sequence (P08515 2-218): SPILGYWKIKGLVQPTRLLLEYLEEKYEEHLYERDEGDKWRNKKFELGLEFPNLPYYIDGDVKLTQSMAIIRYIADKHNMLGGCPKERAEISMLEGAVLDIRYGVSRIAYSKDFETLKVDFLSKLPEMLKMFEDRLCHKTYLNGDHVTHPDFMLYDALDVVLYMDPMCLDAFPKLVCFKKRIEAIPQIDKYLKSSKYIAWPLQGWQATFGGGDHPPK

Row | Compound | IC50 [1] [µM] | ΔTm at 100 µM [2] [°C]
1 | C[C@@H]1CN([C@@H](C)CO)S(=O)(=O)c2ccc(-c3ccc(S(N)(=O)=O)cc3)cc2O[C@H]1CN(C)C(=O)c1cnoc1-c1ccco1 [compound 59, 5-(Furan-2-yl)-N-(((4R,5R)-2-((S)-1-hydroxypropan-2-yl)-4-methyl-1,1-dioxido-8-(4-sulfamoylphenyl)-2,3,4,5-tetrahydrobenzo[b][1,4,5]oxathiazocin-5-yl)methyl)-N-methylisoxazole-4-carboxamide] | 0.016 | –
2 | CNC(=O)[C@H]1C[C@@H](Oc2cccc(C3=CCNCC3)c2)CN1S(=O)(=O)c1ccc(S(N)(=O)=O)cc1 [compound 45, (2R,4R)-N-Methyl-1-((4-sulfamoylphenyl)sulfonyl)-4-(3-(1,2,3,6-tetrahydropyridin-4-yl)phenoxy)pyrrolidine-2-carboxamide] | 0.026 | –
3 | CNC(=O)[C@H]1C[C@H](Oc2cccc(-c3ccc(S(N)(=O)=O)cc3)c2)CN1Cc1cn2c(n1)CCC2 [compound 52, (2R,4S)-1-((6,7-Dihydro-5H-pyrrolo[1,2-a]imidazol-2-yl)methyl)-N-methyl-4-((4'-sulfamoyl-[1,1'-biphenyl]-3-yl)oxy)pyrrolidine-2-carboxamide] | 0.064 | –
4 | C[C@H]1CN([C@@H](C)CO)S(=O)(=O)c2ccc(-c3ccc(S(N)(=O)=O)cc3)cc2O[C@H]1CN(C)C(=O)c1cnoc1-c1ccco1 [compound 57, 5-(Furan-2-yl)-N-(((4S,5R)-2-((S)-1-hydroxypropan-2-yl)-4-methyl-1,1-dioxido-8-(4-sulfamoylphenyl)-2,3,4,5-tetrahydrobenzo[b][1,4,5]oxathiazocin-5-yl)methyl)-N-methylisoxazole-4-carboxamide] | 0.031 | –
5 | CC(=O)N1CC2(CN(Cc3ccc(S(N)(=O)=O)o3)C[C@@H]2c2ccc(-c3ccc(F)c(CN(C)C)c3)cc2)C1 [compound 46, (R)-5-((2-Acetyl-8-(3'-((dimethylamino)methyl)-4'-fluoro-[1,1'-biphenyl]-4-yl)-2,6-diazaspiro[3.4]octan-6-yl)methyl)furan-2-sulfonamide] | 0.279 | –
6 | C=CCNc1ncc(C(=O)N2CC[C@H](c3cccc(-c4cc(F)cc(OCC(=O)O)c4)c3)[C@@H]2C(=O)NC)s1 [compound 3, 3] | – | 3.3
7 | CC(=O)N1C[C@@H](c2ccc(-c3ccc(S(N)(=O)=O)cc3)cc2)C2(C1)CN(C(=O)C(C)Oc1cccc(C#N)c1)C2 (stereo partly drawn) [compound 54, 4'-((8S)-6-Acetyl-2-(2-(3-cyanophenoxy)propanoyl)-2,6-diazaspiro[3.4]octan-8-yl)-[1,1'-biphenyl]-4-sulfonamide] | 0.034 | –
8 | CC(=O)N1C[C@H](c2ccc(-c3cccc(S(N)(=O)=O)c3)cc2)C2(C1)CN(C(=O)c1nc(C)n3c1CCCC3)C2 [compound 53, (R)-4'-(6-Acetyl-2-(3-methyl-5,6,7,8-tetrahydroimidazo[1,5-a]pyridine-1-carbonyl)-2,6-diazaspiro[3.4]octan-8-yl)-[1,1'-biphenyl]-3-sulfonamide] | > 10 | –
9 | C[C@H](CO)N1C[C@H](C)[C@@H](CN(C)C(=O)c2coc(S(C)(=O)=O)c2)Oc2cc(-c3ccc(S(N)(=O)=O)cc3)ccc2S1(=O)=O [compound 58, N-(((4S,5S)-2-((R)-1-Hydroxypropan-2-yl)-4-methyl-1,1-dioxido-8-(4-sulfamoylphenyl)-2,3,4,5-tetrahydrobenzo[b][1,4,5]oxathiazocin-5-yl)methyl)-N-methyl-5-(methylsulfonyl)furan-3-carboxamide] | 0.017 | –
